Source: ChEMBL document CHEMBL1201862, “PubChem BioAssay data set” (2004)
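All cell lines were grown in 96-well plates and treated with compound for 48 hours. GI50 = concentration required for 50% inhibition of growth.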 Activity calls are given as the source filed them. Rule as the data show it: active = GI50 up to about 1.1 µM and inactive = higher.

Columns and labels:
Assay in all cases: NCI tumour cell line growth inhibition, 48 h
IGROV-1 = tested on: IGROV-1
CCRF-CEM = tested on: CCRF-CEM
K562 = tested on: K562
T47D = tested on: T47D
MDA-MB-231 = tested on: MDA-MB-231
OVCAR-8 = tested on: OVCAR-8
OVCAR-5 = tested on: OVCAR-5
OVCAR-3 = tested on: OVCAR-3
MDA-MB-435 = tested on: MDA-MB-435
ACHN = tested on: ACHN
SK-MEL-5 = tested on: SK-MEL-5
A549 = tested on: A549
HCT-15 = tested on: HCT-15
786-0 = tested on: 786-0
SN12C = tested on: SN12C
UACC-257 = tested on: UACC-257
SR = tested on: SR
NCI-H522 = tested on: NCI-H522
SNB-19 = tested on: SNB-19
TK-10 = tested on: TK-10
RPMI-8226 = tested on: RPMI-8226
DU-145 = tested on: DU-145
SK-OV-3 = tested on: SK-OV-3
HT-29 = tested on: HT-29
LOX IMVI = tested on: LOX IMVI
M14 = tested on: M14
HCT-116 = tested on: HCT-116
BT-549 = tested on: BT-549
HOP-62 = tested on: HOP-62
CAKI-1 = tested on: CAKI-1
SF-295 = tested on: SF-295
SF-268 = tested on: SF-268
OVCAR-4 = tested on: OVCAR-4
MCF7 = tested on: MCF7
SW-620 = tested on: SW-620
UACC-62 = tested on: UACC-62
Malme-3M = tested on: Malme-3M
Hs-578T = tested on: Hs-578T
HL-60 = tested on: HL-60
NCI-H23 = tested on: NCI-H23
COLO 205 = tested on: COLO 205
SK-MEL-28 = tested on: SK-MEL-28
KM12 = tested on: KM12
HOP-92 = tested on: HOP-92
SF-539 = tested on: SF-539
HCC 2998 = tested on: HCC 2998
NCI/ADR-RES = tested on: NCI/ADR-RES
SNB-75 = tested on: SNB-75
U-251 = tested on: U-251
MDA-N = tested on: MDA-N
PC-3 = tested on: PC-3
RXF 393 = tested on: RXF 393
MOLT-4 = tested on: MOLT-4
NCI-H226 = tested on: NCI-H226
UO-31 = tested on: UO-31
SK-MEL-2 = tested on: SK-MEL-2
EKVX = tested on: EKVX
NCI-H460 = tested on: NCI-H460

Question: What does the source list for `CCCC(=O)Nc1cc2c3c(c1)CCCN3CCC2`?
Answer: GI50 (IGROV-1): > 10 µM (inactive); GI50 (CCRF-CEM): > 10 µM (inactive); GI50 (K562): > 10 µM (inactive); GI50 (T47D): 6.01 µM (inactive); GI50 (MDA-MB-231): > 10 µM (inactive); GI50 (OVCAR-8): > 10 µM (inactive); GI50 (OVCAR-5): > 10 µM (inactive); GI50 (OVCAR-3): > 10 µM (inactive); GI50 (MDA-MB-435): > 10 µM (inactive); GI50 (ACHN): > 10 µM (inactive); GI50 (SK-MEL-5): > 10 µM (inactive); GI50 (A549): > 10 µM (inactive); GI50 (HCT-15): > 10 µM; GI50 (786-0): > 10 µM (inactive); GI50 (SN12C): > 10 µM (inactive); GI50 (UACC-257): > 10 µM (inactive); GI50 (SR): > 10 µM (inactive); GI50 (NCI-H522): > 10 µM (inactive); GI50 (SNB-19): > 10 µM (inactive); GI50 (TK-10): > 10 µM (inactive); GI50 (RPMI-8226): > 10 µM (inactive); GI50 (DU-145): > 10 µM (inactive); GI50 (SK-OV-3): 9.66 µM (inactive); GI50 (HT-29): > 10 µM (inactive); GI50 (LOX IMVI): > 10 µM (inactive); GI50 (M14): > 10 µM (inactive); GI50 (HCT-116): > 10 µM (inactive); GI50 (BT-549): > 10 µM (inactive); GI50 (HOP-62): > 10 µM (inactive); GI50 (CAKI-1): > 10 µM (inactive); GI50 (SF-295): > 10 µM (inactive); GI50 (SF-268): > 10 µM (inactive); GI50 (OVCAR-4): > 10 µM (inactive); GI50 (MCF7): 6.08 µM (inactive); GI50 (SW-620): > 10 µM (inactive); GI50 (UACC-62): > 10 µM (inactive); GI50 (Malme-3M): > 10 µM (inactive); GI50 (Hs-578T): > 10 µM (inactive); GI50 (HL-60): > 10 µM (inactive); GI50 (NCI-H23): 3.77 µM (inactive); GI50 (COLO 205): > 10 µM (inactive); GI50 (SK-MEL-28): > 10 µM (inactive); GI50 (KM12): > 10 µM (inactive); GI50 (HOP-92): > 10 µM (inactive); GI50 (SF-539): > 10 µM (inactive); GI50 (HCC 2998): > 10 µM (inactive); GI50 (NCI/ADR-RES): > 10 µM (inactive); GI50 (SNB-75): > 10 µM (inactive); GI50 (U-251): > 10 µM (inactive); GI50 (MDA-N): > 10 µM (inactive); GI50 (PC-3): > 10 µM (inactive)

Question: `CN1CCc2c([nH]c3ccccc23)C1` was tested. Which GI50 (IGROV-1) did it give?
Answer: > 100 µM (inactive)

Question: And the GI50 (CCRF-CEM)?
Answer: > 100 µM (inactive)

Question: What about the GI50 (K562) of the same compound?
Answer: > 100 µM (inactive)

Question: And the GI50 (T47D)?
Answer: > 100 µM (inactive)

Question: What about the GI50 (MDA-MB-231) of the same compound?
Answer: > 100 µM (inactive)

Question: And the GI50 (OVCAR-8)?
Answer: > 100 µM (inactive)

Question: What about the GI50 (OVCAR-5) of the same compound?
Answer: > 100 µM (inactive)

Question: What about the GI50 (OVCAR-3) of the same compound?
Answer: > 100 µM (inactive)

Question: What about the GI50 (MDA-MB-435) of the same compound?
Answer: > 100 µM (inactive)

Question: What about the GI50 (ACHN) of the same compound?
Answer: > 100 µM (inactive)

Question: And the GI50 (SK-MEL-5)?
Answer: > 100 µM (inactive)

Question: What about the GI50 (A549) of the same compound?
Answer: > 100 µM (inactive)

Question: And the GI50 (HCT-15)?
Answer: > 100 µM

Question: What about the GI50 (786-0) of the same compound?
Answer: > 100 µM (inactive)

Question: And the GI50 (RXF 393)?
Answer: > 100 µM (inactive)

Question: And the GI50 (SN12C)?
Answer: > 100 µM (inactive)

Question: And the GI50 (MOLT-4)?
Answer: > 100 µM (inactive)

Question: What about the GI50 (UACC-257) of the same compound?
Answer: > 100 µM (inactive)

Question: And the GI50 (NCI-H226)?
Answer: > 100 µM (inactive)

Question: What about the GI50 (SR) of the same compound?
Answer: > 100 µM (inactive)

Question: What about the GI50 (NCI-H522) of the same compound?
Answer: > 100 µM (inactive)

Question: And the GI50 (SNB-19)?
Answer: > 100 µM (inactive)

Question: And the GI50 (TK-10)?
Answer: > 100 µM (inactive)

Question: What about the GI50 (RPMI-8226) of the same compound?
Answer: > 100 µM (inactive)

Question: What about the GI50 (DU-145) of the same compound?
Answer: > 100 µM (inactive)

Question: And the GI50 (SK-OV-3)?
Answer: > 100 µM (inactive)

Question: And the GI50 (HT-29)?
Answer: > 100 µM (inactive)

Question: And the GI50 (LOX IMVI)?
Answer: > 100 µM (inactive)

Question: And the GI50 (M14)?
Answer: > 100 µM (inactive)

Question: What about the GI50 (HCT-116) of the same compound?
Answer: > 100 µM (inactive)

Question: What about the GI50 (BT-549) of the same compound?
Answer: > 100 µM (inactive)

Question: What about the GI50 (HOP-62) of the same compound?
Answer: > 100 µM (inactive)

Question: And the GI50 (CAKI-1)?
Answer: > 100 µM (inactive)

Question: What about the GI50 (SF-295) of the same compound?
Answer: > 100 µM (inactive)

Question: What about the GI50 (SF-268) of the same compound?
Answer: > 100 µM (inactive)

Question: What about the GI50 (OVCAR-4) of the same compound?
Answer: > 100 µM (inactive)

Question: And the GI50 (MCF7)?
Answer: > 100 µM (inactive)

Question: What about the GI50 (SW-620) of the same compound?
Answer: > 100 µM (inactive)

Question: What about the GI50 (UACC-62) of the same compound?
Answer: > 100 µM (inactive)

Question: What about the GI50 (Malme-3M) of the same compound?
Answer: 29.4 µM (inactive)

Question: And the GI50 (Hs-578T)?
Answer: > 100 µM (inactive)

Question: And the GI50 (UO-31)?
Answer: > 100 µM (inactive)

Question: What about the GI50 (HL-60) of the same compound?
Answer: > 100 µM (inactive)

Question: And the GI50 (NCI-H23)?
Answer: > 100 µM (inactive)

Question: What about the GI50 (COLO 205) of the same compound?
Answer: > 100 µM (inactive)

Question: What about the GI50 (SK-MEL-2) of the same compound?
Answer: > 100 µM (inactive)

Question: What about the GI50 (SK-MEL-28) of the same compound?
Answer: > 100 µM (inactive)

Question: And the GI50 (EKVX)?
Answer: > 100 µM (inactive)

Question: And the GI50 (KM12)?
Answer: > 100 µM (inactive)

Question: And the GI50 (HCC 2998)?
Answer: > 100 µM (inactive)

Question: What about the GI50 (NCI/ADR-RES) of the same compound?
Answer: > 100 µM (inactive)

Question: And the GI50 (SNB-75)?
Answer: 19.7 µM (inactive)

Question: And the GI50 (U-251)?
Answer: > 100 µM (inactive)

Question: And the GI50 (MDA-N)?
Answer: > 100 µM (inactive)

Question: What about the GI50 (NCI-H460) of the same compound?
Answer: > 100 µM (inactive)

Question: And the GI50 (PC-3)?
Answer: > 100 µM (inactive)
